Laboratory results taken from article PMC5238433 (Scientific Reports, 2017).
“Also recorded” adds a separate entry of the source. No end group written: not given here.

Assays:
[1] = tested on: APJ dimer (APJ-Rluc / APJ-EGFP); test: BRET, effect of interference peptides on APJ homodimers; type: cell-based, human
From the text: Figure 7 The effect of interference peptides on apelin receptor (APJ) dimers. […] BRET[1] was detected as described above.

APJ homodimer = test: MALDI-TOF MS of immunoprecipitated APJ complex after treatment with HIV TAT-TMD interference peptides; type: binding, human; settings: peptide 4 μM, 60 min, 37 °C
From the text: TMDs are important for the formation of head-to-head interfaces in class A GPCR dimers. To identify dimerization interfaces in the seven TMDs of APJ, the effects of cell-penetrating interference peptides (containing the sequence of the hydrophobic transmembrane helices) on APJ homodimerization were examined by MS.
Figure 5 The effects of interference peptides on apelin receptor (APJ) homodimerization as measured by matrix assisted laser desorption […] time-of-flight (MALDI-TOF) mass spectrometry.
The identity of the TMD peptide sequences was analyzed with liquid chromatography (LC)-MS.
MS was performed to identity APJ dimer interfaces in samples treated with TMD peptides. Cells were transfected with APJ and, 48 h later, treated with or without the indicated HIV TAT-TMD fused peptides (4 μM) for 60 min at 37 °C. Extracted proteins were immunoprecipitated using an anti-APJ antibody. Protein A/G PLUS-agarose beads were incubated with proteins for 2 h and washed four times with lysis buffer. The APJ complex was eluted from beads as described previously. Then, the endogenous APJ complex was analyzed with an AXIMA matrix-assisted laser desorption/ionization time-of-flight (MALDI-TOF) system (Shimazdu) in linear positive mode. The mass range was 4–10 kDa and the matrix was Sinapic Acid (SA), 10 mg/ml (50% acetonitrile (ACN), 50% H2O, 0.1% […] (TFA)). The results were calibrated with a Shimadzu MALDI calibration kit (Laser BioLabs).

[2] = tested on: human umbilical vein endothelial cells (HUVECs); test: xCELLigence RTCA, apelin-13-induced cellular response (cell index) with or without interference peptide; type: cell-based; settings: TMD1 4 μM with apelin-13 10 μM, 0.1 μM or 1 nM; average of quadruplicates
Procedure: All curves were plotted as the average of quadruplicate treatments, with error bars shown as SEM.
A background step (step 1) was performed before other experimental steps. The background step was performed with each well of the E-Plate 16 containing only culture media (100 μl/well) for 30 min at 37 °C, prior to the addition of 10000 HUVECs per well (100 μl/well). […] The schedule settings were as follows (RTCA Software 2.0): […]

[3] = tested on: APJ oligomers (APJ-Rluc, APJ-VN173, APJ-VC155); test: BiFC-BRET, effect of agonist/antagonist treatment on APJ oligomerization; type: cell-based, human; settings: CHO cells co-expressing APJ-Rluc, concentration not given, four independent experiments in triplicate
Procedure: Additionally, BiFC-BRET assays were performed to detect APJ oligomerization in living cells. Two non-fluorescent fragments (pCE-BiFC-VN173 and pCE-BiFC-VC155) of Venus fluorescent protein were separately fused to APJ (APJ-VN173 and APJ-VC155) (Fig. 4A). CHO cells were then co-transfected with APJ-Rluc, APJ-VN173, and APJ-VC155 and observed with TIRFM.
Figure 4 Assessment of apelin receptor (APJ) oligomerization with bioluminescence resonance energy transfer - bimolecular fluorescence complementation (BiFC-BRET). (A) Principle of BiFC-BRET. The assay examines the formation of functional Venus by the complementation of protein fragments fused to APJ. Association of APJ enables formation of a bimolecular fluorescent complex. If all three tagged APJ proteins interact, BRET can occur. (B) TIRFM detection of APJ dimers (yellow particles) after BiFC. (C) Assessment of APJ oligomerization with BiFC-BRET. (D) Assessment of agonist-induced oligomerization.

[4] = tested on: APJ homodimers (APJ-Rluc / APJ-EGFP); test: BRET, effect of agonist/antagonist treatment on APJ homodimerization; type: cell-based, human; settings: CHO cells co-expressing APJ-Rluc and APJ-EGFP (1:1); concentration not given; four independent experiments in triplicate
Procedure: We further assessed APJ interactions by co-immunoprecipitation (Co-IP), BRET[1], and Förster resonance energy transfer (FRET). […] BRET studies were performed to confirm APJ homodimerization.
Figure 2 Assessment of apelin receptor (APJ) dimerization using co-immunoprecipitation (Co-IP) and bioluminescence resonance energy transfer (BRET) assays. (A) Assessment of APJ homodimerization with Co-IP. Chinese hamster ovary (CHO) cells were either not transfected (mock) or transfected with HA-APJ, Myc-APJ, or both (co-transfection). HA-APJ and Myc-APJ were also mixed (mix). Immunoprecipitated samples were resolved by SDS-PAGE and immunoblotted with an anti-Myc antibody (upper panel). […] (B) Assessment of APJ homodimerization with BRET[1]. (C) BRET saturation curves. (D) Assessment of effects of agonist-treatment on dimerization by BRET[1]. For BRET, four independent experiments were performed with triplicate samples and the results were expressed as the mean ± SEM of four experiments ([…] versus control group; NS, not significant versus unstimulated cells).
To monitor constitutive APJ interactions, CHO cells were transfected with APJ-Rluc and APJ-EGFP plasmids at a ratio of 1:1, 1:2, 1:3, 1:4, 1:5, and 1:6 to express a constant amount of donor-labeled protein with increasing amounts of acceptor-labeled protein. At 24 h post-transfection, cells were trypsinized and plated on a 96 well microplate for 24 h in HEPES-buffered phenol red-free medium (Invitrogen, Life Technologies). Coelenterazine h (5 μM; Promega) was added for BRET measurements using a Tristar LB941 plate reader (Berthold) with an Rluc filter (400–475 nm) and a EGFP filter (500–550 nm). To monitor the induced interactions of APJ, BRET signals were measured as described above, with slight modifications. […] To measure the effects of interference peptides on APJ dimers, CHO cells were co-transfected with APJ-Rluc and APJ-EGFP (1:3) and incubated with interference peptides corresponding to TMD1, TMD2, TMD3, TMD4, TMD5, TMD6, and TMD7 at 37 °C (4 μM), and BRET[1] detected as described above.

CHO-K1 cells = tested on: CHO-K1 cells; design: method as in not given ("Recent studies"); settings: serum-deprived CHO-K1 cells, 5 pM to 5 μM, xCELLigence; ref not given ("Recent studies"); cited from earlier work
[5] = tested on: angiotensin-converting enzyme 2 (ACE2); settings: cited from earlier work
From the text: The apelin receptor (APJ) is a member of the family A of G-protein-coupled receptors (GPCRs) and is involved in range of physiological and pathological functions including fluid homeostasis, anxiety, and depression, as well as cardiovascular and metabolic disorders. APJ was first identified as an orphan GPCR with closest identity to the angiotensin II (Ang II) receptor. In 1998, the peptide apelin was isolated from bovine stomach extracts as the endogenous ligand of APJ.

[6] = tested on: human α-adrenergic 2 A receptors; settings: CHO-K1 cells expressing human α-adrenergic 2 A receptors (Gαi coupled), 0.15 to 333 nM, xCELLigence; ref not given ("Recent studies"); cited from earlier work
From the text: Recent studies used the xCELLigence system to monitor activation of endogenous GPCRs. […] Here, we also ...

PAIYMLVFLLGTTGNGLVLWTVFYGRKKRRQRRR [TMD1, HIV TAT-fused interference peptide derived from human APJ transmembrane domain 1]
effect on APJ dimer BRET signals ([1]; CHO cells, APJ-Rluc:APJ-EGFP 1:3, peptide 4 μM, 37 °C, four independent experiments in triplicate): significantly reduced APJ dimer BRET signals
reduction of APJ dimer BRET signals ([1]; CHO cells, APJ-Rluc:APJ-EGFP 1:3, peptide 4 μM, 37 °C, four independent experiments in triplicate, P < 0.01, one range for TMD1, 2, 3 and 4): 55–75%
disruption of APJ (homo)dimerization (statement in words) ([1]; interference peptides 4 μM, in vitro, by BRET and MS): disrupted APJ dimerization; also recorded: can effectively disrupt the formation of APJ homodimers; also recorded: disrupted APJ homodimerization in vitro
species detected by MALDI-TOF MS / effect of peptide on APJ homodimerization (APJ homodimer; cells transfected with APJ, anti-APJ immunoprecipitation, MALDI-TOF linear positive mode, mass range 4–10 kDa, sinapic acid): TMD1 dimers, TMD1 tetramers, APJ, [APJ + TMD1], APJ dimers, and [APJ + TMD1] dimers were detected
binding to APJ (peptides encoding TMDs, MS) (APJ homodimer; MALDI-TOF): can bind to APJ
HUVEC cell index (CI), interference peptide with apelin-13 [2]: led to a decreasing trend in the CI compared to that before treatment

apelin-36: APJ agonist purchased from Phoenix Pharmaceuticals (LVQPRGSRNGPGPWQGGRRKFRRQRPRLSHKGPMPF; Apelin-36; UniProt Q9ULZ1 42-77, looked up)
BRET ratio versus unstimulated cells (APJ oligomerization, BiFC-BRET) [3]: the same as that of unstimulated cells
BRET signal versus unstimulated cells (APJ homodimer formation) [4]: not significantly different to those of unstimulated cells

apelin-17
BRET ratio versus unstimulated cells (APJ oligomerization, BiFC-BRET) [3]: the same as that of unstimulated cells
BRET signal versus unstimulated cells (APJ homodimer formation) [4]: not significantly different to those of unstimulated cells

calcitonin: stimulating serum-deprived CHO-K1 cells with calcitonin (CGNLSTCMLGTYTQDFNKFHTFPQTAIGVGAP; ends and bridges not checked; cysteine pairing not given here; UniProt P01258 85-116, looked up)
cell index response (CHO-K1 cells): a transient agonist-induced increase in CI lasting up to a few hours

apelin
hydrolysis by ACE2 [5]: high catalytic efficiency

Brc1c(NC2=NCCN2)ccc2nccnc12 [UK14,304]
cell index response [6]: induces a dose-dependent increase in CI
